Paper PMC4584356, “A Pimarane Diterpene and Cytotoxic Angucyclines from a Marine-Derived Micromonospora sp. in Vietnam’s East Sea” (Marine Drugs, 2015)
Values after ≈ are worked out from the molar mass of the structure shown.

What was measured:
Kuramochi = test: cells; type: cell-based; details: Homo sapiens, 72 h, read-out: Cytotoxicity LC50 Kuramochi
Method: (§1) Following their identification, compounds 1–5 were assessed for cytotoxicity in two high-grade ovarian cancer cell lines, OVCAR4 and Kuramochi. Potential for selective cytotoxicity was evaluated using two non-cancerous mouse cell lines representing the putative progenitor cells of ovarian cancer, murine ovarian surface epithelial (MOSE) and murine oviductal epithelial (MOE). […] Generally speaking, this para-quinone scaffold is not an attractive lead, as higher toxicity in non-tumorigenic cell lines confers serious overall toxicity.
(§2) Human ovarian OVCAR4 and Kuramochi cancer cells were maintained in RPMI 1640 (11875-093, Life-technologies; Carlsbad, CA, USA) supplemented with 10% FBS (16000-044, Life-technologies; Carlsbad, CA, USA) and 1% penicillin/streptomycin. Non-cancerous murine ovarian surface epithelium (MOSE) and murine oviductal epithelium (MOE) cells were maintained as previously reported. Concentration-response experiments were performed as previously described for 72 h.

OVCAR4 = test: cells; type: cell-based; details: Homo sapiens, OVCAR-4, 72 h, read-out: Cytotoxicity LC50 OVCAR4
Method: as §1, §2

[1] = test system: M. tuberculosis H37Rv ATCC 27294; test: Microplate alamar blue assay (MABA), replicating M. tuberculosis; type: cell-based; details: for MIC: Mycobacterium tuberculosis, MIC = lowest concentration giving ≥90% growth inhibition, averaged from triplicates
[2] = test system: M. tuberculosis H37Rv ATCC 27294; test: Low oxygen recovery assay (LORA), non-replicating M. tuberculosis; type: cell-based; details: Mycobacterium tuberculosis
[3] = test system: OVCAR4, Kuramochi, MOSE and MOE cell lines; test: Cytotoxicity panel of cancerous and non-cancerous cell lines (overall statements, selectivity); type: cell-based; details: for Cytotoxicity in the cell line panel (in words): OVCAR4, Kuramochi, MOSE, MOE
Method: as §1, §2

[4] = test system: L1210 lymphocytic leukemia cells; set-up: method as in PMID 11395569; details: L1210 lymphocytic leukemia cells in vitro; read-out: IC50 range, inhibition of tumor cell proliferation and viability; cited from earlier work
Eimeria tenella = test system: Eimeria tenella; set-up: method as in PMID 7451359, PMID 7451360; details: apicomplexan poultry parasite Eimeria tenella; cited from earlier work
[5] = test system: two fungal species, a human parasite, and several Gram-negative and Gram-positive bacteria; set-up: method as in PMID 7451359, PMID 7451360; details: cited from earlier work
[6] = test system: panel of Gram-negative and Gram-positive bacteria; set-up: method as in PMID 2925509; details: cited from earlier work
[7] = test system: wide range of cancer cell lines; details: previous reports; cited from earlier work

Structure (SMILES) | CC50 (Kuramochi) | CC50 (OVCAR4) | Activity in MABA (in words) [1] | MIC [1] | MIC [2] | Cytotoxicity in the cell line panel (in words) [3] | IC50 [4] | Anticoccidial activity (in words) (Eimeria tenella) | Biological activity against antimicrobial panel (in words) [5] | Greater activity toward Kuramochi ovarian cancer cells ([3]; Kuramochi versus the other cell lines of the panel) | Antibacterial activity (in words) [6] | Inhibition of cancer cell lines (in words) [7]
C=C[C@@]1(C)CCC2=C(CC[C@H]3C(C)(C)[C@@H](O)C(=O)C[C@]23C)C1 [Compound 1, isopimara-2-one-3-ol-8,15-diene] | > 33.1 µM | > 33.1 µM | lacked significant activity | 19.4 µg/mL (≈ 64.1 µM) | > 50 µg/mL | not significantly active | – | – | – | – | – | –
COc1cccc2c1C(=O)c1c(O)c3c(c(O)c1C2=O)C[C@@](O)(C(=O)CO)C[C@@H]3O[C@H]1C[C@H](N)[C@H](O)[C@H](C)O1 [Doxorubicin, reference compound] | < 0.078 µM | < 0.078 µM | – | – | – | – | – | – | – | – | – | –
Cc1cc(O)c2c3c(ncc2c1)C(=O)c1c(O)cccc1C3=O [Compound 4, phenanthroviridone] | 1.11 µM | 4.82 µM | – | 0.72 µg/mL (≈ 2.36 µM) | 17.8 µg/mL (≈ 58.3 µM) | non-specifically cytotoxic | – | – | – | – | – | –
COc1cc(C)cc2c(=O)oc3c(c12)C(=O)c1cccc(O)c1C3=O [Compound 5, WS-5995 A] | 18.6 µM | 127 µM | lacked significant activity | 22.7 µg/mL (≈ 67.5 µM) | > 50 µg/mL | enhanced cytotoxicity against the Kuramochi cell line when compared to non-tumorigenic cell lines | 0.24 to 0.65 µM | anticoccidial activity | no significant biological activity | approximately seven-fold | – | –
Cc1cc(O)c2c(c1)COC1=C2C(=O)c2cccc(O)c2C1=O [Compound 2, lagumycin B] | > 32.5 µM | > 32.5 µM | – | 2.01 µg/mL (≈ 6.52 µM) | 25.7 µg/mL (≈ 83.4 µM) | – | – | – | – | – | – | –
Cc1cc(O)c2c3c(c(O)cc2c1)C(=O)c1c(O)cccc1C3=O [Compound 3, dehydrorabelomycin] | 6.72 µM | 11 µM | – | 1.01 µg/mL (≈ 3.15 µM) | 19.6 µg/mL (≈ 61.2 µM) | non-specifically cytotoxic | – | – | – | – | no detectable activity | inhibited a wide range of cancer cell lines at micromolar potency
